According to US20180153842A1, “AMINO ACID SUPPLEMENTATION FOR A HEALTHY MICROBIOTA ECOSYSTEM” (NESTEC S.A., priority 2003, published 2018):

What was measured:
Assay type in all cases: in vivo, Sprague-Dawley rats
Settings in all cases: 5% DSS in drinking water for 9 days then 2% for 18 days, feces
Bacteroides = assay: fecal Bacteroides count in rats
Description: (§1) The animal experiment was conducted as follows: Male Sprague-Dawley rats (n=32) aged 10 months were randomly distributed into 4 experimental groups (described below). During an 8 days acclimatization period, rats had free access to tap water and received a control diet or diets supplemented in amino acids as described below. After this adaptation period, Dextran Sulfate Sodium (DSS)-treated rats received 5% DSS (w/v) in their drinking water for the first 9 days of the experiment and 2% DSS for the following 18 days to induce a chronic colitis.
(§2) ii) Group “DSS”: rats were fed ad libitum with the control diet. They received DSS (free access) dissolved in their drinking water as previously described.
(§3) At the end of the experiment, fecal samples were collected from animals with a sterile spoon into sterile tubes, frozen (liquid nitrogen) in 10% glycerol and then stored at −80° C. until analysis. The fecal microbiota was analyzed quantitatively for Enterobacteria, Bacteroides, Enterococci, Lactobacilli and Bifidobacteria species according to standard methods. Bacteria were counted using selective or semi-selective media. The counts were expressed as log (base 10) cfu/g feces with a lower detection limit of 3.30 log cfu/g and 5.50 log cfu/g of feces for Bacteroides.
(§4) Data are expressed as mean±SEM. […]

Enterococci = assay: fecal Enterococci count in rats
Description: as §1, §2, §3, §4

Lactobacilli = assay: fecal Lactobacilli count in rats
Description: as §1, §2, §3, §4

Enterobacteria = assay: fecal Enterobacteria count in rats
Description: as §1, §2, §3, §4

Dextran Sulfate Sodium [DSS] was tested, and the “Bacteroides counts compared to controls” value (Bacteroides) was “increased”, the “Enterococci counts compared to controls” value (Enterococci) was “significantly decreased” and the “Lactobacilli counts compared to controls” value (Lactobacilli) was “significantly decreased”. For the same substance, the “Enterobacteria counts compared to controls” value (Enterobacteria) was “significantly decreased”.
